Here are results for three molecules from publication PMC7984390 (Journal of Clinical Pharmacology, 2020).

“And” between values parts separate entries of the source, which are not always exact repeats. Equal entries are not always repeated. “Also recorded” adds a separate entry of the source.

Data set [1] is described as follows: Phase 1 study: iohexol plasma clearance as marker of GFR. In kind it is in vivo, human. The conditions noted are these: for Iohexol C0, arithmetic mean (CV%) / Iohexol CLsyst, arithmetic mean (CV%): iohexol iv.
The nature of data set [2]: Phase 1 study: safety. In kind it is in vivo, human. The following applies: by treatment period; healthy subjects.
Data set [3] can be described thus: Phase 1 study: endogenous markers of renal function. In kind it is in vivo, human.
For data set [4] the following is noted: cited from earlier work.
[5] abbreviates: treatment metformin + tucatinib, n = 17.
The mark [6] stands for this setting: metformin alone or with tucatinib, n = 17.
[7] abbreviates: urine 0-24 h, metformin 850 mg oral, alone or with tucatinib, n = 17.
Where [8] appears, read: combination treatment versus metformin alone.

As for `CC(=O)N(CC(O)CO)c1c(I)c(C(=O)NCC(O)CO)c(I)c(C(=O)NCC(O)CO)c1I` (stereo not drawn) [Iohexol], the “Iohexol C0, arithmetic mean (CV%)” value in data set [1] (setting [5]) is 178.5 (21.5) µg/mL; in data set [1] (treatment metformin, n = 17) it was 175.6 (18.0) µg/mL. In addition, the “Iohexol CLsyst, arithmetic mean (CV%)” value is 129.0 (22.0) mL/min in data set [1] (setting [5]) and 129.8 (22.7) mL/min in data set [1] (treatment metformin, n = 17).

For `CN(C)C(=N)N=C(N)N` [Metformin], the “GFR, arithmetic mean (CV%)” value in data set [1] (calculated from iohexol plasma clearance, n = 17) was 94.99 (17.4) mL/min/1.73 m^2. The “Proportion of subjects who experienced TEAEs” value in data set [2] is recorded as 38.9%. Also, the time of peak concentration (Tmax) (commonly the time from dosing to the highest level) (human, plasma, oral, 850 mg) was 1.5 to 4 h. Besides, the highest concentration (Cmax) (as a rule, the highest concentration seen after dosing) (human, plasma, po, 850 mg) turned out to be 1300 ng/mL. The “Metformin CLrenal, arithmetic mean (CV%)” value (metformin 850 mg oral, alone or with tucatinib 300 mg twice daily, n = 17) is reported as 30.0 (27.0) L/h. In addition, under setting [6], the “Metformin CL/F, geometric LSM” value was 102.0 L/h and the “Metformin VzF, geometric LSM” value is given as 664.7 L. Besides, under setting [7], the “Ae0‐24, amount of metformin excreted unchanged in urine, arithmetic mean (CV%)” value is reported as 242.6 (26.5) mg; the “Fe0‐24, cumulative fraction of metformin excreted unchanged in urine, arithmetic mean (CV%)” value is 28.54% and 28.5 (26.5) %. Besides, in data set [3] (setting [8]), the “Mean eGFR derived from cystatin C, 12 hours postdose” value is 97.9 mL/min/1.73 m^2 and the “Mean eGFR derived from cystatin C, premetformin dose” value was determined as 101.4 mL/min/1.73 m^2. Further, in data set [3] (day 2 (after metformin alone) versus day 9 (in the presence of tucatinib)), the “Mean CrCl 24 hours postdose” value stood at 152.3 mL/min. For the same molecule, the “Mean cystatin C concentration prior to metformin dosing” value in data set [3] (metformin alone (day 1) versus tucatinib coadministration (day 8)) is recorded as 0.846 mg/L. The “Mean cystatin C concentration 12 hours postmetformin dosing” value in data set [3] (metformin alone versus metformin and tucatinib) came to 0.881 mg/L.

With `Cc1cc(Nc2ncnc3ccc(NC4=NC(C)(C)CO4)cc23)ccc1Oc1ccn2ncnc2c1` [Tucatinib], the “Patients with adverse event of elevated serum creatinine concentration” value in data set [4] (tucatinib arm (with trastuzumab and capecitabine), HER2CLIMB) is given as 13.9%. Also, in data set [4] (tucatinib arm, all grade 1 or 2), the “Patients with increased creatinine as a laboratory abnormality” value is recorded as 33%. Further, the “Effect of tucatinib on GFR (iohexol clearance)” value in data set [1] (tucatinib 300 mg twice daily) is given as “unchanged; also recorded: unaffected”. For the same molecule, in data set [2], the “Proportion of subjects who experienced TEAEs” value was 33.3%. For the same molecule, where the note is “tucatinib 300 mg twice daily coadministered with metformin 850 mg”, the “Effect of tucatinib on metformin Cmax” value is “no effect”. For the same molecule, the “Effect of tucatinib on cystatin C-based eGFR” value in data set [3] (tucatinib 300 mg twice daily) is given as “unchanged”.
